Drawing on US20260138961A1, “MODULATORS OF MITOCHONDRIAL DNA REPLICATION” (Pretzel Therapeutics, Inc., priority 2022, published 2026), this text covers IC50 for 19 compounds.

Bounds are passed on as bounds.

This assay has as its target T1, human POLγ 3′-5′ exonuclease activity (Homo sapiens, UniProt P54098).
T1 sequence (P54098 1-1239): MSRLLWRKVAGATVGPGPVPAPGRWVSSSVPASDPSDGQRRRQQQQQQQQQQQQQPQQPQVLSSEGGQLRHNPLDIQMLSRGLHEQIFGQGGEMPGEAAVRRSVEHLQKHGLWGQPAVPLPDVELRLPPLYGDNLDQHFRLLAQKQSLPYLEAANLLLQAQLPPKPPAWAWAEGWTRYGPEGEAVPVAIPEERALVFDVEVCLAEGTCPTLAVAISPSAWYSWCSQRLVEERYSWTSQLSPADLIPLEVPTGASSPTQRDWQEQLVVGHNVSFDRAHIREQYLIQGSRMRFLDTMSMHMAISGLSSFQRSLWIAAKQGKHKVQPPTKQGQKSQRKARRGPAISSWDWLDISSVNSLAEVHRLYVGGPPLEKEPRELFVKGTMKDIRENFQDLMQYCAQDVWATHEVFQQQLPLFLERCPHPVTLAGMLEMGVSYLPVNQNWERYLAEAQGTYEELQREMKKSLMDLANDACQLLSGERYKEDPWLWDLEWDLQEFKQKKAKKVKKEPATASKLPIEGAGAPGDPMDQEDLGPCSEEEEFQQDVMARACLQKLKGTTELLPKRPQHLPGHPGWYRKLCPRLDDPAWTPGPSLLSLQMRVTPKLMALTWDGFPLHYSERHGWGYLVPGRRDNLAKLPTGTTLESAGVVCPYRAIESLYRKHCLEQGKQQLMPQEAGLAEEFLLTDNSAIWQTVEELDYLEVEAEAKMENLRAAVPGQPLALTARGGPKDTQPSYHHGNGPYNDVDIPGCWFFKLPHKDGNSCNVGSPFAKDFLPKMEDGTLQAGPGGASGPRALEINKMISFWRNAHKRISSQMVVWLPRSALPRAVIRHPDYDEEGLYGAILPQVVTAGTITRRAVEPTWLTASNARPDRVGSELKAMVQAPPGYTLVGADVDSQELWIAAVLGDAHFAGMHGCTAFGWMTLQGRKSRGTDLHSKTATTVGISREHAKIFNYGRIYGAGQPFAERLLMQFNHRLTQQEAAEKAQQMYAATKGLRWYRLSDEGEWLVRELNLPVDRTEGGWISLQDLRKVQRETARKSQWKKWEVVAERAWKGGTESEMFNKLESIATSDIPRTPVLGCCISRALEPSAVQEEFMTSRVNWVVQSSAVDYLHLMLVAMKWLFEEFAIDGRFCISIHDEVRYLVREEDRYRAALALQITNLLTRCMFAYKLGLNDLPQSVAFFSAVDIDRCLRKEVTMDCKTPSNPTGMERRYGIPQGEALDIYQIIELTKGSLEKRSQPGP
T1 sequence (Q9UHN1 1-485 partner): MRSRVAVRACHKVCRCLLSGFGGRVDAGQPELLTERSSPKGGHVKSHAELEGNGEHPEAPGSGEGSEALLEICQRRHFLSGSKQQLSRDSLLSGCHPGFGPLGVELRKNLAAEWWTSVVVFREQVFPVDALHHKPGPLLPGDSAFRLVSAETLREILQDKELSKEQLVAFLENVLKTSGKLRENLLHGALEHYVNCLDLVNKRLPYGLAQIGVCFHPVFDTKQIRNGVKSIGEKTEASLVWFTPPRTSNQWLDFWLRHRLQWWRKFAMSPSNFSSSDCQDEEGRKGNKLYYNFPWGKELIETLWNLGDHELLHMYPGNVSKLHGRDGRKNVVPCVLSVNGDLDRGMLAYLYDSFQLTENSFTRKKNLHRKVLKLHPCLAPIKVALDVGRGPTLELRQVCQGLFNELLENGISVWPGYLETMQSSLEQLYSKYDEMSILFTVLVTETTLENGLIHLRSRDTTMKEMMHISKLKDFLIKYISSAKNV
The assay can be described thus: Exonuclease inhibition assay with human POLγ (SYBR Green I fluorescence). The note with it: POLγA 1 nM, POLγB 1.3 nM, 5 nM exonuclease template, no dNTPs, 37° C. 2.5 hours. Type of assay: biochemical. The protocol:
Exonuclease inhibition assay with human POLγ.
The ability of small molecules to inhibit the 3′-5′ exonuclease activity of POLγ was analyzed in a quantitative fluorescence SYBR Green I assay with fluorescence intensity (FI) readout.
Human POLγ was incubated with a linear, partially double-stranded template containing an 85 base pair double-stranded DNA stretch and a 15 nucleotides long single-stranded 5′-tail (hereafter referred to as the “exonuclease template”). […] When bound to double-stranded DNA, SYBR Green I fluorescence increases by up to 100-fold. In the absence of deoxynucleotide triphosphates (dNTPs), the exonuclease activity of POLγ degrades the 85-mer strand, which leads to the formation of single-stranded DNA (ssDNA) and decreased fluorescent intensity. The assay was performed in a 384-well plate format.
The exonuclease template used was generated by hybridization of a 100 nucleotides long, single-stranded DNA molecule with an inverted dT at the 3′-end (5′-TTTTTTTTTATCCGGGCTCGTTATCTAAGCTGCTCTTGGTAGGCATTGACGTCCATACTGCAAATTCAGCTCTGTGCAGTTAGGCAGGAGTCTACAAGC invT-3′) to an 85 nucleotides long single-stranded DNA molecule (5′-AGCTTGTAGACTCCTGCCTAACTGCACAGAGCTGAATTTGCAGTATGGACGTCAATGCCTACCAGAGCAGCTTAGATAACGAGC-3′), using a Bio-Rad T100 Thermal Cycler. The inverted dT is characterized by a 3′-3′ linkage, which inhibits both degradation of the 3′-5′ exonuclease activity and extension by DNA polymerases.
POLγ is an heterotrimer of one POLγA subunit (harboring exonuclease and DNA polymerase activities) and two accessory POLγB subunits. Proteins used in the exonuclease assay were POLγA (NP_002684) and POLγB (NP_009146).
The protein mixture used in the assays contained POLγA (1 nM), POLγB (1.3 nM, concentration calculated as a dimer), 25 mM Tris-HCl (pH 8.0), 0.1 mg/mL bovine serum albumin, 1 mM Bond-Breaker TCEP solution (pH 7) [Thermo Fisher], 25 mM NaCl, and 0.02% Triton X-100.
The DNA template mixture used in the assay contained 5 nM of the exonuclease template, 25 mM Tris-HCl (pH 8.0), 10 mM MgCl2, 0.1 mg/mL bovine serum albumin, 1 mM Bond-Breaker TCEP solution [Thermo Fisher], and 0.02% Triton X-100.
Microplates with compounds (0.1 μL in each well) to be tested in the assay were prepared from 10 mM compound stocks in 100% DMSO, and equal amounts of DMSO without any compound were added to positive and negative control wells.
The protein mixture containing POLγ was dispensed (5 μL in each well) into compound plates and incubated at 37° C. for 15 minutes to allow compound binding to the POLγ complex. After incubation, 5 μL of the DNA template mixture was dispensed into each well. The plates were incubated at 37° C. for 2.5 hours.
During incubation, a combined stop buffer and detection reagent solution was prepared. The buffer contained 25 mM EDTA (pH 8.0), 0.02% Triton X-100, and SYBR Green I [Invitrogen] diluted 10,000× (for fluorescent readout). EDTA will stop the enzymatic reaction by chelating magnesium ions.
After the 2.5-hour incubation period, the SYBR Green I solution was added (10 μL) to the screening plates and the plates were incubated at room temperature in the dark for 20 minutes before the fluorescent signal was read between […] on a BMG Pherastar microtiter plate reader.
The compound `Cc1cc(S(=O)(=O)Nc2cccc(C(=O)N(C)C(C)CO)c2)c(C)cc1Cl` (single isomer, unassigned) [Example 14, 3-((4-chloro-2,5-dimethylphenyl)sulfonamido)-N-(1-hydroxypropan-2-yl)-N-methylbenzamide] yielded a half-inhibitory concentration (IC50) of 3 µM.

For `Cc1ccc(C)c(S(=O)(=O)Nc2cccc(C(=O)N3CCCCC3C#N)c2)c1` (stereo not shown) [Example 2, N-(3-(2-cyanopiperidine-1-carbonyl)phenyl)-2,5-dimethylbenzenesulfonamide], the 50% inhibitory concentration (IC50) was found to be 4 µM.

`Cc1ccc(C)c(S(=O)(=O)Nc2cccc(C(=O)N3CCCCC3)c2)c1` [Example 3, 2,5-dimethyl-N-(3-(piperidine-1-carbonyl)phenyl)benzene sulfonamide] had an IC50 of 10 µM.

In the case of `Cc1ccc(C)c(S(=O)(=O)Nc2cccc(C(=O)NCC3CC3)c2)c1` [Example 4, N-(cyclopropylmethyl)-3-((2,5-dimethylphenyl)sulfonamido)benzamide], the IC50 is 48 µM.

Compound `Cc1ccc(C)c(S(=O)(=O)Nc2cccc(C(=O)N3CCCC[C@H]3C)c2)c1` [Example 5, (R)-2,5-dimethyl-N-(3-(2-methylpiperidine-1-carbonyl)phenyl)benzenesulfonamide] registered a concentration for half-maximal inhibition (IC50) of 3 µM.

As to `Cc1ccc(C)c(S(=O)(=O)Nc2cccc(C(=O)N3CCCC[C@@H]3C)c2)c1` [Example 6, (S)-2,5-dimethyl-N-(3-(2-methylpiperidine-1-carbonyl)phenyl)benzenesulfonamide], the IC50 came out at 12 µM.

`Cc1ccc(C)c(S(=O)(=O)Nc2cccc(C(=O)N3CCOCC3C#N)c2)c1` (stereo not shown) [Example 7, N-(3-(3-cyanomorpholine-4-carbonyl)phenyl)-2,5-dimethylbenzenesulfonamide] returned an IC50 of 1 µM.

`Cc1ccc(C)c(S(=O)(=O)Nc2cccc(C(=O)N[C@@H](C)C3CC3)c2)c1` [Example 8, (S)-N-(1-cyclopropylethyl)-3-((2,5-dimethylphenyl)sulfonamido)benzamide] showed a half-maximal inhibitory concentration (IC50) of 9 µM.

As for `Cc1cc(S(=O)(=O)Nc2cccc(C(=O)N3CCCC[C@H]3C)c2)c(C)cc1Cl` [Example 9, (R)-4-chloro-2,5-dimethyl-N-(3-(2-methylpiperidine-1-carbonyl)phenyl)benzenesulfonamide], the concentration for half-maximal inhibition (IC50) was found to be 2 µM.

In turn, `Cc1cc(S(=O)(=O)Nc2cccc(C(=O)N3CCC[C@H]3C)c2)c(C)cc1Cl` [Example 10, (R)-4-chloro-2,5-dimethyl-N-(3-(2-methylpyrrolidine-1-carbonyl)phenyl)benzenesulfonamide] showed an IC50 of 0.8 µM.

With `Cc1cc(S(=O)(=O)Nc2cccc(C(=O)NCc3ccccc3)c2)c(C)cc1Cl` [Example 11, N-benzyl-3-((4-chloro-2,5-dimethylphenyl)sulfonamido)benzamide], the half-maximal inhibitory concentration (IC50) was greater than 100 µM.

`Cc1cc(S(=O)(=O)Nc2cccc(C(=O)N(C)C)c2)c(C)cc1Cl` [Example 12, 3-((4-chloro-2,5-dimethylphenyl)sulfonamido)-N,N-dimethylbenzamide] returned a 50% inhibitory concentration (IC50) of 5 µM.

`Cc1cc(S(=O)(=O)Nc2cc(F)cc(C(=O)N3CCC[C@H]3C)c2)c(C)cc1Cl` [Example 13, (R)-4-chloro-N-(3-fluoro-5-(2-methylpyrrolidine-1-carbonyl)phenyl)-2,5-dimethylbenzenesulfonamide] gave an IC50 of 6 µM.

Consider `Cc1cc(S(=O)(=O)Nc2cccc(-c3nccs3)c2)c(C)cc1Cl` [Example 16, 4-chloro-2,5-dimethyl-N-(3-(thiazol-2-yl)phenyl)benzenesulfonamide], for which it took 12 µM to reach half-maximal inhibition (IC50).

With `Cc1cc(S(=O)(=O)Nc2cccc(-c3ncco3)c2)c(C)cc1Cl` [Example 17, 4-chloro-2,5-dimethyl-N-(3-(oxazol-2-yl)phenyl)benzenesulfonamide], the IC50 was greater than 100 µM.

The compound `Cc1cc(S(=O)(=O)Nc2cccc(-c3ccn(C)n3)c2)c(C)cc1Cl` [Example 18, 4-chloro-2,5-dimethyl-N-(3-(1-methyl-1H-pyrazol-3-yl)phenyl)benzenesulfonamide] returned a concentration for half-maximal inhibition (IC50) of 81 µM.

`Cc1cc(S(=O)(=O)Nc2cccc(-c3nccn3C)c2)c(C)cc1Cl` [Example 19, 4-chloro-2,5-dimethyl-N-(3-(1-methyl-1H-imidazol-2-yl)phenyl)benzenesulfonamide] came in with an IC50 of 8 µM.

Regarding `Cc1cc(S(=O)(=O)Nc2ccc3c(c2)CC(=O)N3)c(C)cc1Cl` [Example 185, 4-chloro-2,5-dimethyl-N-(2-oxoindolin-5-yl)benzenesulfonamide], the 50% inhibitory concentration (IC50) was 6 µM.

Take “(R)-2,5-dimethyl-N-(3-(3-methylmorpholine-4-carbonyl)phenyl)benzenesulfonamide [Example 1]”: it took 7 µM to reach half-maximal inhibition (IC50).

The IC50 is the midpoint of a concentration-inhibition curve. A low value points to greater potency.
